{"source": "patent US20260262643A1", "about": "“HERBICIDAL BENZOXAZINES” (FMC CORPORATION, priority 2022, published 2026)", "key": {"[1]": {"test_system": "barnyardgrass", "assay": "Test C preemergence", "format": "in vivo, Echinochloa crusgalli", "how_it_was_run": "(§1)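 Test material, in non-phytotoxic solvent with surfactant, was sprayed on the soil directly after seeding (preemergence) or on young plants of 2–10 cm with one to two leaves (postemergence). Greenhouse, 10 days; 0–100 visual control scale.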"}, "[2]": {"test_system": "blackgrass", "assay": "Test C preemergence", "format": "in vivo, Alopecurus myosuroides", "how_it_was_run": "as §1"}, "[3]": {"test_system": "corn", "assay": "Test C preemergence", "format": "in vivo, Zea mays", "how_it_was_run": "as §1"}, "[4]": {"test_system": "foxtail, giant", "assay": "Test C preemergence", "format": "in vivo, Setaria faberi", "source_text": "(§2) Seeds of plant species selected from barnyardgrass (Echinochloa crusgalli), blackgrass (Alopecurus myosuroides), corn (Zea mays), foxtail, giant (giant foxtail, Setaria faberi), green foxtail (Setaria viridis), goosegrass (Eleusine indica), kochia (Bassia scoparia), oat, wild (wild oat, Avena fatua), pigweed, palmer (palmer amaranth, palmer pigweed, Amaranthus palmeri), Pigweed, Redroot (redroot pigweed, Amaranthus retroflexus), ragweed (common ragweed, Ambrosia artemisiifolia), ryegrass, Italian ([…] ryegrass, Lolium multiflorum), soybean (Glycine max), and wheat (Triticum aestivum) were planted into a blend of loam soil and sand and treated preemergence with a directed soil spray using test chemicals formulated in a non-phytotoxic solvent mixture which included a surfactant. At the same time, plants selected from these crops and weed species and also galium (catchweed bedstraw, Galium aparine) and horseweed (Erigeron canadensis) were planted in pots containing the same blend of loam soil and sand and treated with postemergence applications of test chemicals formulated in the same manner. Plants ranged in height from 2 to 10 cm and were in the one- to two-leaf stage for the postemergence treatment. Treated plants and untreated controls were maintained in a greenhouse for 10 days, after which time all treated plants were compared to untreated controls and visually evaluated for injury. Plant response ratings, summarized in Table C, are based on a 0 to 100 scale where 0 is no effect and 100 is complete control. A dash (-) response means no test result."}, "[5]": {"test_system": "kochia", "assay": "Test C preemergence", "format": "in vivo, Bassia scoparia", "how_it_was_run": "as §1"}, "[6]": {"test_system": "oat, wild", "assay": "Test C preemergence", "format": "in vivo, Avena fatua", "how_it_was_run": "as §1"}, "[7]": {"test_system": "pigweed, palmer", "assay": "Test C preemergence", "format": "in vivo, Amaranthus palmeri", "how_it_was_run": "as §1"}, "[8]": {"test_system": "ragweed", "assay": "Test C preemergence", "format": "in vivo, Ambrosia artemisiifolia", "how_it_was_run": "as §1"}, "[9]": {"test_system": "ryegrass, Italian", "assay": "Test C preemergence", "format": "in vivo, Lolium multiflorum", "how_it_was_run": "as §1"}, "[10]": {"test_system": "soybean", "assay": "Test C preemergence", "format": "in vivo, Glycine max", "how_it_was_run": "as §1"}, "[11]": {"test_system": "wheat", "assay": "Test C preemergence", "format": "in vivo, Triticum aestivum", "how_it_was_run": "as §1"}, "[12]": {"test_system": "barnyardgrass", "assay": "Test C postemergence", "format": "in vivo, Echinochloa crusgalli", "conditions": "10 days, 0 to 100 scale (0 no effect, 100 complete control)", "how_it_was_run": "as §1"}, "[13]": {"test_system": "blackgrass", "assay": "Test C postemergence", "format": "in vivo, Alopecurus myosuroides", "conditions": "10 days, 0 to 100 scale (0 no effect, 100 complete control)", "how_it_was_run": "as §1"}, "[14]": {"test_system": "corn", "assay": "Test C postemergence", "format": "in vivo, Zea mays", "conditions": "10 days, 0 to 100 scale (0 no effect, 100 complete control)", "how_it_was_run": "as §1"}, "[15]": {"test_system": "foxtail, giant", "assay": "Test C postemergence", "format": "in vivo, Setaria faberi", "conditions": "10 days, 0 to 100 scale (0 no effect, 100 complete control)", "source_text": "as §2"}, "[16]": {"test_system": "kochia", "assay": "Test C postemergence", "format": "in vivo, Bassia scoparia", "conditions": "10 days, 0 to 100 scale (0 no effect, 100 complete control)", "how_it_was_run": "as §1"}, "[17]": {"test_system": "oat, wild", "assay": "Test C postemergence", "format": "in vivo, Avena fatua", "conditions": "10 days, 0 to 100 scale (0 no effect, 100 complete control)", "how_it_was_run": "as §1"}, "[18]": {"test_system": "pigweed, palmer", "assay": "Test C postemergence", "format": "in vivo, Amaranthus palmeri", "conditions": "10 days, 0 to 100 scale (0 no effect, 100 complete control)", "how_it_was_run": "as §1"}, "[19]": {"test_system": "ragweed", "assay": "Test C postemergence", "format": "in vivo, Ambrosia artemisiifolia", "conditions": "10 days, 0 to 100 scale (0 no effect, 100 complete control)", "how_it_was_run": "as §1"}, "[20]": {"test_system": "ryegrass, Italian", "assay": "Test C postemergence", "format": "in vivo, Lolium multiflorum", "conditions": "10 days, 0 to 100 scale (0 no effect, 100 complete control)", "how_it_was_run": "as §1"}, "[21]": {"test_system": "soybean", "assay": "Test C postemergence", "format": "in vivo, Glycine max", "conditions": "10 days, 0 to 100 scale (0 no effect, 100 complete control)", "how_it_was_run": "as §1"}, "[22]": {"test_system": "wheat", "assay": "Test C postemergence", "format": "in vivo, Triticum aestivum", "conditions": "10 days, 0 to 100 scale (0 no effect, 100 complete control)", "how_it_was_run": "as §1"}, "[23]": {"test_system": "galium", "assay": "Test C postemergence", "format": "in vivo, Galium aparine", "conditions": "10 days, 0 to 100 scale (0 no effect, 100 complete control)", "how_it_was_run": "as §1"}, "[24]": {"test_system": "horseweed", "assay": "Test C postemergence", "format": "in vivo, Erigeron canadensis", "conditions": "10 days, 0 to 100 scale (0 no effect, 100 complete control)", "how_it_was_run": "as §1"}, "[25]": {"test_system": "barnyardgrass", "assay": "Test D flooded paddy test", "format": "in vivo, Echinochloa crus-galli", "conditions": "250 g ai/ha, applied to paddy water, visual rating after 13 to 14 days, scale 0 to 100 (0 no effect, 100 complete control)", "how_it_was_run": "(§3)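 Visual ratings from 0, meaning no effect, to 100, meaning complete control, were assigned against untreated controls 13 to 14 days after compounds were added to the floodwater of pots kept 3 cm deep, with plants at the 2-leaf stage.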"}, "[26]": {"test_system": "ducksalad", "assay": "Test D flooded paddy test", "format": "in vivo, Heteranthera limosa", "conditions": "250 g ai/ha, applied to paddy water, visual rating after 13 to 14 days, scale 0 to 100 (0 no effect, 100 complete control)", "how_it_was_run": "as §3"}, "[27]": {"test_system": "rice", "assay": "Test D flooded paddy test", "format": "in vivo, Oryza sativa", "conditions": "250 g ai/ha, applied to paddy water, visual rating after 13 to 14 days, scale 0 to 100 (0 no effect, 100 complete control)", "how_it_was_run": "as §3"}, "[28]": {"test_system": "sedge, umbrella", "assay": "Test D flooded paddy test", "format": "in vivo, Cyperus difformis", "conditions": "250 g ai/ha, applied to paddy water, visual rating after 13 to 14 days, scale 0 to 100 (0 no effect, 100 complete control)", "how_it_was_run": "as §3"}, "[29]": {"conditions": "500 g ai/ha, preemergence, 0 to 100 scale (0 no effect, 100 complete control)"}, "[30]": {"conditions": "Preemergence, 125 g ai/ha, 0 to 100 scale, 0 no effect, 100 complete control"}}}
{"smiles": "Cc1cccc2c1OC(C(F)(F)F)CN2C(=O)c1ccnc(-n2cnc(C(C)C)n2)c1", "note": "(single isomer, unassigned) [Compound 320]", "values": [{"measurement": "Barnyardgrass plant response rating", "setting": "[1]; [29]", "result": 80}, {"measurement": "Plant response rating, Barnyardgrass", "setting": "[1]; [30]", "result": 30}, {"measurement": "Blackgrass plant response rating", "setting": "[2]; [29]", "result": 60}, {"measurement": "Plant response rating, Blackgrass", "setting": "[2]; [30]", "result": 0}, {"measurement": "Corn plant response rating", "setting": "[3]; [29]", "result": 30}, {"measurement": "Plant response rating, Corn", "setting": "[3]; [30]", "result": 30}, {"measurement": "Foxtail, Giant plant response rating", "setting": "[4]; [29]", "result": 90}, {"measurement": "Plant response rating, Foxtail, Giant", "setting": "[4]; [30]", "result": 20}, {"measurement": "Kochia plant response rating", "setting": "[5]; [29]", "result": 10}, {"measurement": "Plant response rating, Kochia", "setting": "[5]; [30]", "result": 10}, {"measurement": "Oat, Wild plant response rating", "setting": "[6]; [29]", "result": 40}, {"measurement": "Plant response rating, Oat, Wild", "setting": "[6]; [30]", "result": 10}, {"measurement": "Pigweed, Palmer plant response rating", "setting": "[7]; [29]", "result": 100}, {"measurement": "Plant response rating, Pigweed, Palmer", "setting": "[7]; [30]", "result": 20}, {"measurement": "Ragweed plant response rating", "setting": "[8]; [29]", "result": 0}, {"measurement": "Plant response rating, Ragweed", "setting": "[8]; [30]", "result": 0}, {"measurement": "Ryegrass, Italian plant response rating", "setting": "[9]; [29]", "result": 90}, {"measurement": "Plant response rating, Ryegrass, Italian", "setting": "[9]; [30]", "result": 80}, {"measurement": "Soybean plant response rating", "setting": "[10]; [29]", "result": 100}, {"measurement": "Plant response rating, Soybean", "setting": "[10]; [30]", "result": 10}, {"measurement": "Wheat plant response rating", "setting": "[11]; [29]", "result": 90}, {"measurement": "Plant response rating, Wheat", "setting": "[11]; [30]", "result": 20}, {"measurement": "Plant response rating, Barnyardgrass", "setting": "[12]; 500 g ai/ha, postemergence", "result": 20}, {"measurement": "Plant response rating, Barnyardgrass", "setting": "[12]; Postemergence, 125 g ai/ha", "result": 0}, {"measurement": "Plant response rating, Blackgrass", "setting": "[13]; 500 g ai/ha, postemergence", "result": 10}, {"measurement": "Plant response rating, Blackgrass", "setting": "[13]; Postemergence, 125 g ai/ha", "result": 0}, {"measurement": "Plant response rating, Corn", "setting": "[14]; 500 g ai/ha, postemergence", "result": 40}, {"measurement": "Plant response rating, Corn", "setting": "[14]; Postemergence, 125 g ai/ha", "result": 10}, {"measurement": "Plant response rating, Foxtail, Giant", "setting": "[15]; 500 g ai/ha, postemergence", "result": 40}, {"measurement": "Plant response rating, Foxtail, Giant", "setting": "[15]; Postemergence, 125 g ai/ha", "result": 20}, {"measurement": "Plant response rating, Kochia", "setting": "[16]; 500 g ai/ha, postemergence", "result": 80}, {"measurement": "Plant response rating, Kochia", "setting": "[16]; Postemergence, 125 g ai/ha", "result": 40}, {"measurement": "Plant response rating, Oat, Wild", "setting": "[17]; 500 g ai/ha, postemergence", "result": 10}, {"measurement": "Plant response rating, Oat, Wild", "setting": "[17]; Postemergence, 125 g ai/ha", "result": 10}, {"measurement": "Plant response rating, Pigweed, Palmer", "setting": "[18]; 500 g ai/ha, postemergence", "result": 50}, {"measurement": "Plant response rating, Pigweed, Palmer", "setting": "[18]; Postemergence, 125 g ai/ha", "result": 0}, {"measurement": "Plant response rating, Ragweed", "setting": "[19]; 500 g ai/ha, postemergence", "result": 50}, {"measurement": "Plant response rating, Ragweed", "setting": "[19]; Postemergence, 125 g ai/ha", "result": 0}, {"measurement": "Plant response rating, Ryegrass, Italian", "setting": "[20]; 500 g ai/ha, postemergence", "result": 30}, {"measurement": "Plant response rating, Ryegrass, Italian", "setting": "[20]; Postemergence, 125 g ai/ha", "result": 20}, {"measurement": "Plant response rating, Soybean", "setting": "[21]; 500 g ai/ha, postemergence", "result": 100}, {"measurement": "Plant response rating, Soybean", "setting": "[21]; Postemergence, 125 g ai/ha", "result": 50}, {"measurement": "Plant response rating, Wheat", "setting": "[22]; 500 g ai/ha, postemergence", "result": 30}, {"measurement": "Plant response rating, Wheat", "setting": "[22]; Postemergence, 125 g ai/ha", "result": 10}, {"measurement": "Plant response rating, Galium", "setting": "[23]; 500 g ai/ha, postemergence", "result": 70}, {"measurement": "Plant response rating, Galium", "setting": "[23]; Postemergence, 125 g ai/ha", "result": 50}, {"measurement": "Plant response rating, Horseweed", "setting": "[24]; 500 g ai/ha, postemergence", "result": 40}, {"measurement": "Plant response rating, Horseweed", "setting": "[24]; Postemergence, 125 g ai/ha", "result": 10}, {"measurement": "Plant response rating, Barnyardgrass (Flood)", "setting": "[25]", "result": 0}, {"measurement": "Plant response rating, Ducksalad (Flood)", "setting": "[26]", "result": 0}, {"measurement": "Plant response rating, Rice (Flood)", "setting": "[27]", "result": 0}, {"measurement": "Plant response rating, Sedge, Umbrella (Flood)", "setting": "[28]", "result": 0}]}
